Where a name gives a salt, the structure may show the parent alone. Values belong to the compound of their own block, whether it stands above or below them.
Tests used:
[1] = Solubility of salt forms in acetonitrile; format: physicochemical; settings: organic solvent or mixture, read-out: Solubility (Acetonitrile; mg/mL)
Description: (§1) Selected physical properties of the salts of Examples 5-6 and 8-12, determined using established characterization methods, are tabulated below (Table 1).

[2] = molecular target: T1, norepinephrine transporter (NET) (Homo sapiens, UniProt P23975); test: Uptake and uptake kinetics in SH-SY5Y human neuroblastoma cells; format: cell-based; settings: SH-SY5Y cells
T1 construct: endogenous in cells; host or cells: SH-SY5Y
Method: (§2) Imaging agent-1 was designed as a substrate for the norepinephrine transporter (NET) to image the cardiac sympathetic nervous system. […] These values were similar to that of MIBG (2.12±0.26 μM and 4.76±0.78 pmol/min/million cells). In animals, tissue biodistribution of imaging agent-1 was assessed by tissue sampling at 15- and 60-minute following administration. Heart uptake was 2.36±0.16 and 2.17±0.12% injected dose per g tissue (% ID/g) in rats and 0.25±0.03 and 0.28±0.03% ID/g in rabbits. In rabbits, desipramine (1 mg/kg) inhibited heart uptake of imaging agent-1 by 68% and ^123I-MIBG uptake by 55% at 1 hour post dose.

[3] = molecular target: T2, norepinephrine transporter (NET), uptake 1 (Oryctolagus cuniculus, UniProt G1TDF9); test: Heart uptake in rabbits after uptake 1 blockade (desipramine) or 6-hydroxydopamine sympathetic denervation; format: in vivo; settings: rabbits, desipramine 1 mg/kg, 1 hour post dose
T2 construct: from tissue; host or cells: rabbit heart, in vivo
Method: as §2
(§3) Desipramine, a selective uptake 1 inhibitor, was used to block cardiac uptake 1 in rats (10 mg/kg, ip), rabbits (1 mg/kg iv), and NHPs (0.5 mg/kg, iv). 6-hydroxydopamine, a neurotoxin, was injected to induce sympathetic denervation in rats (100 mg/kg ip for 7 days) and rabbits (25 mg/kg iv on day 1, 2, 7, and 8). Imaging agent-1 heart uptake in comparison with MIBG was assessed by tissue sampling at 60 minutes post imaging agent injection. Imaging was also performed with (2-tert-butyl-4-chloro-5-[4-(2-[^18F]fluoroethoxymethyl)-benzyloxy]-2H-pyridazin-3-1.

[4] = Heart uptake by tissue sampling in Dahl Salt Sensitive (DSS) rats, a model of heart failure; format: in vivo
Method: The prognostic value of imaging agent-1 was evaluated in Dahl Salt Sensitive (DSS) rats, a rat model of heart failure (HF), and compared with ^123I-meta-iodobenzylguanidine (^123I-MIBG). DSS rats were fed either a low salt (0.1% as control) or high salt diet (8%) for 5 or 9 weeks. To determine the progression of HF in these rats, plasma norepinephrine levels, and heart and lung weights were measured. Compared to low salt diet groups, DSS rats fed a high salt diet for 5 weeks had marked increases in norepinephrine levels (258±28 vs. 1242±184 pg/mL) and heart to body weight ratio (3.3±0.1 vs. 4.5±0.3 mg/g). By 9 weeks, the norepinephrine levels (656±219 vs. 1508±165 pg/mL) and heart to body weight ratio (3.2±0.1 vs. 6.1±0.3 mg/g) had increased further and the lung to body weight ratio had become elevated (3.9±0.1 vs. 14.0±1.4 mg/g). […] Imaging agent-1 and MIBG heart uptake was examined in early and late stage HF rats by tissue sampling after intravenous administration. The uptake was measured using a gamma counter and expressed as differential absorption ratio (DAR). The imaging agent-1 heart uptake decreased following progression of HF from early to late stage HF (low salt group vs. high salt group: 6.9±0.6 vs. 5.1±0.6 and 8.1±0.2 vs. 3.1±0.2 DAR at 5 and 9 weeks respectively).

[5] = Dofetilide induced ECG changes (arrhythmia susceptibility) in RCSD rabbits; format: in vivo; settings: RCSD versus control
Method: (§4) Rabbit models of RCSD were developed by applying phenol directly on the surface of the left ventricular wall during a sternotomy. Two and twelve weeks following the procedure, imaging agent-1 cardiac PET imaging (˜1.5 mCi, iv) were performed in these rabbits. The myocardial area with radioactivity ≥50% maximum was quantified as innervated region for comparison. To evaluate susceptibility of arrhythmia in rabbits, dofetilide (10 and 40 μg/kg iv, a delayed IKr inhibitor) induced changes were assessed by measuring ECG including heart rate (HR), QTc interval (corrected by Fridericia method), and frequency of arrhythmia.

[6] = test system: norepinephrine transporter (NET), uptake 1; test: Heart uptake in rabbits after uptake 1 blockade (desipramine) or 6-hydroxydopamine sympathetic denervation; format: in vivo; settings: denervated rabbits and uptake 1 blocked rabbits and NHPs
Method: as §2, §3

[7] = test system: norepinephrine transporter (NET), uptake 1; test: Heart uptake in rats after uptake 1 blockade (desipramine) or 6-hydroxydopamine sympathetic denervation; format: in vivo; settings: sympathetic denervated rats
Method: as §3

[8] = Cardiac PET imaging in rabbit models of regional and systemic cardiac sympathetic denervation (CSD); format: in vivo, rabbits; settings: rabbits
Method: Rabbit models of regional and systemic CSD were used. To develop regional CSD, a median sternotomy was performed and phenol (89% in liquid) was pained on the anterior and posterior walls of the left ventricle. To develop systemic denervation the neurotoxin, 6-hydroxydopamine (25 mg/kg on day 1, 2, 7 and 8), was administered intravenously. Two weeks following these procedures, rabbits were imaged with imaging agent-1 (˜1.5 mCi, i.v.) using a microPET camera for 30 minutes.

[9] = Cardiac PET imaging in rabbit model of regional cardiac sympathetic denervation (RCSD) and re-innervation; format: in vivo, rabbits; settings: all rabbits including those with RCSD regions
Method: as §4

[10] = Hygroscopicity of salt forms of imaging agent precursor-1; format: physicochemical; settings: salt form of imaging agent precursor-1
Description: as §1

[11] = Stability of salt forms to GVS and 40° C./75% RH; format: physicochemical; settings: salt form of imaging agent precursor-1
Description: as §1

[12] = Thermal stability of salt forms; format: physicochemical; settings: salt form of imaging agent precursor-1
Description: as §1

NET [13] = molecular target: T3, NET (Rattus norvegicus, UniProt Q63380); test: Cell uptake selectivity with and without desipramine in PC-12 cells; format: cell-based
T3 construct: endogenous in cells; host or cells: PC-12
Method: (§5) The affinity (Ki) was determined in a competition binding assay by incubating ^19F-imaging agent-1, a cold analog of imaging agent-1, or NE with ^3H-desmethylimipramine in cell membrane overexpressing human NET. The uptake selectivity was assessed by measuring imaging agent-1 or ^3H-NE cell uptake with and without pretreatment of desipramine, a selective NET inhibitor, in SK—N—SH (human neuroblastoma) and PC-12 (rat pheochromocytoma) cells. In SK—NSH cells, the uptake kinetics (Km and Vmax) were evaluated by measuring NET mediated uptake of imaging agent-1 or NE at various concentrations. Imaging agent-1 cardiac image quality was evaluated by PET imaging (˜1.5 mCi, i.v.) in rabbits in the presence and absence of desipramine (1 mg/kg).

NET [14] = molecular target: T4, NET (Homo sapiens, UniProt P23975); test: Cell uptake selectivity with and without desipramine in SK-N-SH cells; format: cell-based; parameters: endogenous in cells; host or cells: SK-N-SH
Method: as §5

NET [15] = molecular target: T4, NET; test: NET mediated uptake kinetics in SK-N-SH cells; format: cell-based; parameters: endogenous in cells; host or cells: SK-N-SH
Method: as §5

NET [16] = molecular target: T4, NET; test: Effect of heart failure medications on NET mediated imaging agent-1 uptake in SK-N-SH cells; format: cell-based; parameters: endogenous in cells; host or cells: SK-N-SH; settings: even at the highest concentrations tested (1000 μM)

T4 sequence (P23975 whole entry): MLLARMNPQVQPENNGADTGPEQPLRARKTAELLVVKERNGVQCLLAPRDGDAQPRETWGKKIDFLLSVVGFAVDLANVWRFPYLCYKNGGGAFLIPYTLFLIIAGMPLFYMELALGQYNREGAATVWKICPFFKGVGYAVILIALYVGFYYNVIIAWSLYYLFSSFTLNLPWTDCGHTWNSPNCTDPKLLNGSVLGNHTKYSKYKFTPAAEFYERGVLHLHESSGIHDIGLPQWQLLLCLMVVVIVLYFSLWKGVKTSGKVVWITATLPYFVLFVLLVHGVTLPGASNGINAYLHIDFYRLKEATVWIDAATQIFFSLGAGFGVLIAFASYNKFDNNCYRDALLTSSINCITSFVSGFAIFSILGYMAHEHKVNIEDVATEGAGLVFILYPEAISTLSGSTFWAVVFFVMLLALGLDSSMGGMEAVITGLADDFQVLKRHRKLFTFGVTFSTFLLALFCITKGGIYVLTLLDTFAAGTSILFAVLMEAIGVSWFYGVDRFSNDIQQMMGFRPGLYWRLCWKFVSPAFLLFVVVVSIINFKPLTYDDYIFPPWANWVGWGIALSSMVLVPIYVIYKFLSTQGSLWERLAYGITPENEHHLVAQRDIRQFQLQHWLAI
T1 sequence (P23975 whole entry): as above
T3 sequence (Q63380 1-617): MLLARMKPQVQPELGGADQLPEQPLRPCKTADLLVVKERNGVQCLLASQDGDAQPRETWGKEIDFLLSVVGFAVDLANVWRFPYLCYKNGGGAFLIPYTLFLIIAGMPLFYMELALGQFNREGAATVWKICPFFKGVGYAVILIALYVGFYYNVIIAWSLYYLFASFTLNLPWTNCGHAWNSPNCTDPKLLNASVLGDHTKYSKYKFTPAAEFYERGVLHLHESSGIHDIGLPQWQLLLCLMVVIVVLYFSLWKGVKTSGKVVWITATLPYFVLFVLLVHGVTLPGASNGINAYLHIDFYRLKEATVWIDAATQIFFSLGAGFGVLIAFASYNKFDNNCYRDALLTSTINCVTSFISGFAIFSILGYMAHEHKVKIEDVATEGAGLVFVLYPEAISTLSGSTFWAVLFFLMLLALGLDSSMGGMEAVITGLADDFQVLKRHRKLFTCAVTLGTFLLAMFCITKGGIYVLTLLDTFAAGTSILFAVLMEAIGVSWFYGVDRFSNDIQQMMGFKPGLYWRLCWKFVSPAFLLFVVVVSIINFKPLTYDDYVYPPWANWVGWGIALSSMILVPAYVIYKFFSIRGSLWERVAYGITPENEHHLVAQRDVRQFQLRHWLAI
T2 sequence (G1TDF9 1-617): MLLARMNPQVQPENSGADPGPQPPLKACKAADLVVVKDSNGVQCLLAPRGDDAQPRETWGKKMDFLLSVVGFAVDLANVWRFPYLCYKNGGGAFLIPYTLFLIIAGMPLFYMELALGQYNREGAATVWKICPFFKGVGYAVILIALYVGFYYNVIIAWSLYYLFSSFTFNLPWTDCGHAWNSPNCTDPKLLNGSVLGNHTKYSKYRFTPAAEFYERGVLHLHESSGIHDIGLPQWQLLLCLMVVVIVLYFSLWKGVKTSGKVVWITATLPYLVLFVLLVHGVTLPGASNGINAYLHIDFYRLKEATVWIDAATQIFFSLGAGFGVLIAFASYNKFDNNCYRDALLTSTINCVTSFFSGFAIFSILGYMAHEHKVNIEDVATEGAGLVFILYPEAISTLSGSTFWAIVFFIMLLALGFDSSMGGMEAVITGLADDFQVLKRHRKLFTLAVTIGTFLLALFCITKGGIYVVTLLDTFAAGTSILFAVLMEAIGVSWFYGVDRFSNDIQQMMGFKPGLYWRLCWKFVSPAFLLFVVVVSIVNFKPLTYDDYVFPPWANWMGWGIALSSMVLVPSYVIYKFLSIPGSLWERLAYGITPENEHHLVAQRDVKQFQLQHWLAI

Compound: CC(=O)O.N=C(N)NCc1ccc(OCCCOS(=O)(=O)c2ccc(Br)cc2)c(Br)c1 [Acetate, 3-(2-Bromo-4-(guanidinomethyl)phenoxy)propyl 4-bromobenzenesulfonate, acetic acid salt]
solubility [1]: 0.4 mg/mL

Compound: N=C(N)NCc1ccc(OCCCOS(=O)(=O)c2ccc(Br)cc2)c(Br)c1.O=C(O)c1ccccc1 [Benzoate, 3-(2-Bromo-4-(guanidinomethyl)phenoxy)propyl 4-bromobenzenesulfonate, benzoic acid salt]
solubility [1]: 1.5 mg/mL

Compound: N=C(N)NCc1cccc([123I])c1 [MIBG, ^123I-meta-iodobenzylguanidine]
Vmax (uptake kinetics) [2]: 4.76±0.78 pmol/min/million cells
Inhibition of heart uptake by desipramine (uptake 1 blockade) [3]: 55%
Heart uptake, differential absorption ratio (DAR) ([4]; high salt group, 5 weeks (early stage HF)): 3.8±0.5 DAR
Heart uptake, differential absorption ratio (DAR) ([4]; high salt group, 9 weeks (late stage HF)): 2.3±0.3 DAR
Heart uptake, differential absorption ratio (DAR) ([4]; low salt group, 5 weeks): 7.3±0.1 DAR
Heart uptake, differential absorption ratio (DAR) ([4]; low salt group, 9 weeks): 7.9±0.5 DAR

Compound: CN(CCOc1ccc(NS(C)(=O)=O)cc1)CCc1ccc(NS(C)(=O)=O)cc1 [Dofetilide, dofetilide]
Induced QTc prolongation, frequency of premature ventricular contraction, and torsades de pointes ([5]; 10 and 40 μg/kg iv): more prominent in the RCSD group than in control
Induced changes in HR [5]: comparable in the two groups

Compound: CC(C)(C)n1ncc(OCc2ccc(COCC[18F])cc2)c(Cl)c1=O [(2-tert-butyl-4-chloro-5-[4-(2-[^18F]fluoroethoxymethyl)-benzyloxy]-2H-pyridazin-3-1, reference compound]
Cardiac imaging, myocardial activity [6]: marked activity reduction
Cardiac imaging, myocardial activity versus control [7]: comparable myocardial activity
Cardiac perfusion imaging, control versus denervated rabbits [8]: no differences were observed
Perfusion imaging, myocardial distribution [9]: homogeneous myocardial distribution

Compound: CS(=O)(=O)O.N=C(N)NCc1ccc(OCCCOS(=O)(=O)c2ccc(Br)cc2)c(Br)c1 [Mesylate, 3-(2-Bromo-4-(guanidinomethyl)phenoxy)propyl 4-bromobenzenesulfonate, methanesulfonic acid salt]
Hygroscopicity [10]: Slight
Stability to GVS and 40° C./75% RH [11]: Stable
Thermal stability, First event at [12]: 152 °C
solubility [1]: 1.28 mg/mL

Compound: NC[C@H](O)c1ccc(O)c(O)c1 [NE, norepinephrine, reference compound]
Inhibition of cell uptake by blockade of NET (desipramine) (NET [13]): 93±1%
Inhibition of cell uptake by blockade of NET (desipramine) (NET [14]): 97±1%
Vmax (NET mediated uptake) (NET [15]): 6.2±0.7 pMol/million cells/min

Compound: N=C(N)NCc1cccc(I)c1 [MIBG, ^123I-meta-iodobenzylguanidine]
Km [2]: 2.12 ± 0.26 µM

Effect on imaging agent-1 uptake (NET [16]): no effect
Compound: CCCCc1nc(Cl)c(CO)n1Cc1ccc(-c2ccccc2-c2nn[nH]n2)cc1 [Losartan, losartan]

Compound: N=C(N)NCc1ccc(OCCCOS(=O)(=O)c2ccc(Br)cc2)c(Br)c1.O=C(O)C(F)(F)F [Trifluoroacetate, 3-(2-Bromo-4-(guanidinomethyl)phenoxy)propyl 4-bromobenzenesulfonate, trifluoroacetate salt]
Hygroscopicity [10]: Slight
Stability to GVS and 40° C./75% RH [11]: Stable
Thermal stability, First event at [12]: 142 °C
solubility [1]: 4.68 mg/mL

Compound: N=C(N)NCc1ccc(OCCCOS(=O)(=O)c2ccc(Br)cc2)c(Br)c1 [Phosphate, 3-(2-Bromo-4-(guanidinomethyl)phenoxy)propyl 4-bromobenzenesulfonate, phosphoric acid salt]
Hygroscopicity [10]: Slight
Stability to GVS and 40° C./75% RH [11]: Stable
Thermal stability, First event at [12]: 155 °C
solubility [1]: 0.3 mg/mL

Compound: Cl.N=C(N)NCc1ccc(OCCCOS(=O)(=O)c2ccc(Br)cc2)c(Br)c1 [Hydrochloride, 3-(2-Bromo-4-(guanidinomethyl)phenoxy)propyl 4-bromobenzenesulfonate, hydrochloric acid salt]
Hygroscopicity [10]: Indicates hydrate
Stability to GVS and 40° C./75% RH [11]: Stable
Thermal stability, First event at [12]: 117 °C

Effect on imaging agent-1 uptake (NET [16]): no effect
Compound: C[C@H](CS)C(=O)N1CCC[C@H]1C(=O)O [captopril]

Compound: N=C(N)NCc1ccc(OCCCOS(=O)(=O)c2ccc(Br)cc2)c(Br)c1 [Sulfate, 3-(2-Bromo-4-(guanidinomethyl)phenoxy)propyl 4-bromobenzenesulfonate, sulfuric acid salt]
Hygroscopicity [10]: Hygroscopic
Thermal stability, First event at [12]: 103 °C

— patent publication US11174223B2, “Compositions, methods, and systems for the synthesis and use of imaging agents” (Lantheus Medical Imaging, Inc., priority 2010, dated 2021)
